This is an account of results in US6878722B2, “Substituted cycloalkyl P1′ hepatitis C virus inhibitors” (Bristol-Myers Squibb Company, priority 2002, dated 2005).

In assay [1] the target is T1, HCV NS3/4A protease complex (BMS strain, genotype 1a) (Hepatitis C virus genotype 1a, UniProt P27958, C1454S).
T1 construct: DNA encoding the recombinant HCV NS3/4A protease complex (amino acids 1027 to 1711) for these strains; inferred from the pET21b vector and Ni-NTA purification; made in house; host or cells: Escherichia coli BL21 (DE3), pET21b
Description: Recombinant HCV NS3/4A protease complex FRET peptide assay, BMS strain. The format is biochemical. The conditions noted are these: IC50 range, NS3/4A BMS Strain. An outline of the steps: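 Recombinant NS3/4A complex (aa 1027–1711) with C-terminal three-lysine tail, C1711G and C1454S, expressed in E. coli BL21(DE3) and purified by Ni-NTA then Superdex-S200. Inhibition of the complex from each strain measured in vitro by FRET peptide cleavage.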

In assay [2] the test system is HCV replicon in Huh7 cells. Description: HCV replicon cell-based assay (FRET). Conditions: Hepatitis C virus, Huh-7; HCV replicon; read-out: EC50 range. The method in brief: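 Huh7 cells stably carrying a genotype 1b HCV replicon (IRES-neo-EMCV-IRES-NS3-NS5B) were treated with compound for 4 days at 37 °C in 0.5% DMSO final. Lysates containing 10 μM FRET peptide RET S1 were read kinetically at 340/490 nm to give NS3 protease activity, from which EC50 was derived.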
In general terms: A replicon is a self-replicating genome or part of one, used to study replication in cells.

SMILES strings stand for the structures.

T1 sequence (P27958 1658-1714, looked up, stated change not applied): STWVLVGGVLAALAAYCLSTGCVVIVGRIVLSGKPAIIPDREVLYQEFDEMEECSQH
T1 sequence (P27958 1027-1657, looked up, stated change not applied): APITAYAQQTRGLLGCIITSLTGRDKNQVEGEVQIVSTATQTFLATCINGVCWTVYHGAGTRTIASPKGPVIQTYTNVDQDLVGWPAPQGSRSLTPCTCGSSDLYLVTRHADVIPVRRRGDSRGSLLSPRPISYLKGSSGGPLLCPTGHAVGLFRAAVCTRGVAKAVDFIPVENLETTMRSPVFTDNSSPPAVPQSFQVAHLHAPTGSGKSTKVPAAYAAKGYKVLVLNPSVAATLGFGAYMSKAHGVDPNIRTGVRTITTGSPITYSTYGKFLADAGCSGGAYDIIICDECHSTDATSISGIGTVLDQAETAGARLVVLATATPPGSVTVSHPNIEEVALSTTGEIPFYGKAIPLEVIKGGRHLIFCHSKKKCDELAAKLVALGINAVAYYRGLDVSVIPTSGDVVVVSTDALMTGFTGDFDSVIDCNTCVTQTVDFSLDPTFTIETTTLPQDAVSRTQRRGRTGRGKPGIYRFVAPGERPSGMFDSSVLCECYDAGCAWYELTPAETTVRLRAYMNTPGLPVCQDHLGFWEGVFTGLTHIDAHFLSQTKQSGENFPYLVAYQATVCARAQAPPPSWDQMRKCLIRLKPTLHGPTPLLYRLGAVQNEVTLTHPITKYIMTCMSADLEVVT

Regarding `C=C[C@@H]1C[C@]1(NC(=O)[C@@H]1C[C@@H](Oc2cc(-c3ccccc3)nc3cc(OC)ccc23)CN1C(=O)[C@@H](NC(=O)OC(C)(C)C)C(C)(C)C)C(=O)NS(=O)(=O)C1(Cl)CC1` [Compound 38, {1-[2-[1-(1-Chloro-cyclopropanesulfonylaminocarbonyl)-2-vinyl-cyclopropylcarbamoyl]-4-(7-methoxy-2-phenyl-quinolin-4-yloxy)-pyrrolidine-1-carbonyl]-2,2-dimethyl-propyl}-carbamic acid tert-butyl ester], the IC50 (in general, the concentration needed to halve the response being measured) in assay [1] was below 50 nM. The EC50 (in general, the concentration giving half of the maximal effect) in assay [2] was below 50 nM.

Consider `C=C[C@@H]1C[C@]1(NC(=O)[C@@H]1C[C@@H](Oc2cc(-c3ccccc3)nc3cc(OC)ccc23)CN1C(=O)[C@@H](NC(=O)OC(C)(C)C)C(C)(C)C)C(=O)NS(=O)(=O)C1(I)CC1` [Compound 39, {1-[2-[1-(1-Iodo-cyclopropanesulfonylaminocarbonyl)-2-vinyl-cyclopropylcarbamoyl]-4-(7-methoxy-2-phenyl-quinolin-4-yloxy)-pyrrolidine-1-carbonyl]-2,2-dimethyl-propyl}-carbamic acid tert-butyl ester], for which the IC50 in assay [1] is below 50 nM. The EC50 in assay [2] is below 50 nM.

For the compound `C=C[C@@H]1C[C@]1(NC(=O)[C@@H]1C[C@@H](Oc2cc(-c3ccccc3)nc3cc(OC)ccc23)CN1C(=O)[C@@H](NC(=O)OC(C)(C)C)C(C)(C)C)C(=O)NS(=O)(=O)C1(Cc2ccc(F)cc2)CC1` [Compound 40, {1-[2-{1-[1-(4-Fluoro-benzyl)-cyclopropanesulfonylaminocarbonyl]-2-vinyl-cyclopropylcarbamoyl}-4-(7-methoxy-2-phenyl-quinolin-4-yloxy)-pyrrolidine-1-carbonyl]-2,2-dimethyl-propyl}-carbamic acid tert-butyl ester], the IC50 in assay [1] was below 50 nM. The EC50 in assay [2] fell in the range of 50 to 500 nM.

With `C=C[C@@H]1C[C@]1(NC(=O)[C@@H]1C[C@@H](Oc2cc(-c3ccccc3)nc3cc(OC)ccc23)CN1C(=O)[C@@H](NC(=O)OC(C)(C)C)C(C)(C)C)C(=O)NS(=O)(=O)C1(Cc2ccccc2F)CC1` [Compound 41, {1-[2-{1-[1-(2-Fluoro-benzyl)-cyclopropanesulfonylaminocarbonyl]-2-vinyl-cyclopropylcarbamoyl}-4-(7-methoxy-2-phenyl-quinolin-4-yloxy)-pyrrolidine-1-carbonyl]-2,2-dimethyl-propyl}-carbamic acid tert-butyl ester], in assay [1], the IC50 is below 50 nM. Further, in assay [2], the EC50 was 50 to 500 nM.

Turning to `C=C[C@@H]1C[C@]1(NC(=O)[C@@H]1C[C@@H](Oc2cc(-c3ccccc3)nc3cc(OC)ccc23)CN1C(=O)[C@@H](NC(=O)OC(C)(C)C)C(C)(C)C)C(=O)NS(=O)(=O)C1(Cc2ccc(OC)cc2)CC1` [Compound 42, {1-[2-{1-[1-(4-Methoxy-benzyl)-cyclopropanesulfonylaminocarbonyl]-2-vinyl-cyclopropylcarbamoyl}-4-(7-methoxy-2-phenyl-quinolin-4-yloxy)-pyrrolidine-1-carbonyl]-2,2-dimethyl-propyl}-carbamic acid tert-butyl ester], in assay [1], the IC50 fell in the range of 50 to 500 nM. The EC50 in assay [2] lay in the range of 50 to 500 nM.

Take `C=C[C@@H]1C[C@]1(NC(=O)[C@@H]1C[C@@H](Oc2cc(-c3ccccc3)nc3cc(OC)ccc23)CN1C(=O)[C@@H](NC(=O)OC(C)(C)C)C(C)(C)C)C(=O)NS(=O)(=O)C1(C(=C)C)CC1` [Compound 43, {1-[2-[1-(1-Isopropenyl-cyclopropanesulfonylaminocarbonyl)-2-vinyl-cyclopropylcarbamoyl]-4-(7-methoxy-2-phenyl-quinolin-4-yloxy)-pyrrolidine-1-carbonyl]-2,2-dimethyl-propyl}-carbamic acid tert-butyl ester]: the IC50 in assay [1] was below 50 nM. Besides, in assay [2], the EC50 was below 50 nM.

Turning to `C=C[C@@H]1C[C@]1(NC(=O)[C@@H]1C[C@@H](Oc2cc(-c3ccccc3)nc3cc(OC)ccc23)CN1C(=O)[C@@H](NC(=O)OC(C)(C)C)C(C)(C)C)C(=O)NS(=O)(=O)C1(C=C(C)C)CC1` [Compound 44, [1-(4-(7-Methoxy-2-phenyl-quinolin-4-yloxy)-2-{1-[1-(2-methyl-propenyl)-cyclopropanesulfonylaminocarbonyl]-2-vinyl-cyclopropylcarbamoyl}-pyrrolidine-1-carbonyl)-2,2-dimethyl-propyl]-carbamic acid tert-butyl ester], the IC50 in assay [1] was below 50 nM. Further, the EC50 in assay [2] is 50 to 500 nM.

In the case of `C=C[C@@H]1C[C@]1(NC(=O)[C@@H]1C[C@@H](Oc2cc(-c3ccccc3)nc3cc(OC)ccc23)CN1C(=O)[C@@H](NC(=O)OC(C)(C)C)C(C)(C)C)C(=O)NS(=O)(=O)C1(CC#CCC)CC1` [Compound 45, (1-{4-(7-Methoxy-2-phenyl-quinolin-4-yloxy)-2-[1-(1-pent-2-ynyl-cyclopropanesulfonylaminocarbonyl)-2-vinyl-cyclopropylcarbamoyl]-pyrrolidine-1-carbonyl}-2,2-dimethyl-propyl)-carbamic acid tert-butyl ester], in assay [1], the IC50 was below 50 nM. Moreover, the EC50 in assay [2] was below 50 nM.

Consider `C=C[C@@H]1C[C@]1(NC(=O)[C@@H]1C[C@@H](Oc2cc(-c3ccccc3)nc3cc(OC)ccc23)CN1C(=O)[C@@H](NC(=O)OC(C)(C)C)C(C)(C)C)C(=O)NS(=O)(=O)C1(Cc2ncoc2-c2ccccc2)CC1` [Compound 46], for which the IC50 in assay [1] was below 50 nM. Moreover, in assay [2], the EC50 was below 50 nM.

As for `C=C[C@@H]1C[C@]1(NC(=O)[C@@H]1C[C@@H](Oc2cc(-c3ccccc3)nc3cc(OC)ccc23)CN1C(=O)[C@@H](NC(=O)OC(C)(C)C)C(C)(C)C)C(=O)NS(=O)(=O)C1(Cc2ccncc2)CC1` [Compound 47], the concentration for half-maximal inhibition (IC50) in assay [1] is below 50 nM. Further, the 50% effective concentration (EC50) in assay [2] is below 50 nM.

Consider `C=C[C@@H]1C[C@]1(NC(=O)[C@@H]1C[C@@H](Oc2cc(-c3ccccc3)nc3cc(OC)ccc23)CN1C(=O)[C@@H](NC(=O)OC(C)(C)C)C(C)(C)C)C(=O)NS(=O)(=O)C1(Cc2ccccn2)CC1` [Compound 48, (1-{4-(7-Methoxy-2-phenyl-quinolin-4-yloxy)-2-[1-(1-pyridin-2-ylmethyl-cyclopropanesulfonylaminocarbonyl)-2-vinyl-cyclopropylcarbamoyl]-pyrrolidine-1-carbonyl}-2,2-dimethyl-propyl)-carbamic acid tert-butyl ester], for which the IC50 in assay [1] was below 50 nM. Also, the EC50 in assay [2] was below 50 nM.

As to `C=C[C@@H]1C[C@]1(NC(=O)[C@@H]1C[C@@H](Oc2cc(-c3ccccc3)nc3cc(OC)ccc23)CN1C(=O)[C@@H](NC(=O)OC(C)(C)C)C(C)(C)C)C(=O)NS(=O)(=O)C1(Cc2cccnc2)CC1` [Compound 49, (1-{4-(7-Methoxy-2-phenyl-quinolin-4-yloxy)-2-[1-(1-pyridin-3-ylmethyl-cyclopropanesulfonylaminocarbonyl)-2-vinyl-cyclopropylcarbamoyl]-pyrrolidine-1-carbonyl}-2,2-dimethyl-propyl)-carbamic acid tert-butyl], in assay [1], the IC50 is below 50 nM. The EC50 in assay [2] fell in the range of 50 to 500 nM.

`C=C[C@@H]1C[C@]1(NC(=O)[C@@H]1C[C@@H](Oc2cc(-c3ccccc3)nc3cc(OC)ccc23)CN1C(=O)[C@@H](NC(=O)OC(C)(C)C)C(C)(C)C)C(=O)NS(=O)(=O)C1(Cc2c(C)noc2C)CC1` [Compound 50, {1-[2-{1-[1-(3,5-Dimethyl-isoxazol-4-ylmethyl)-cyclopropanesulfonylaminocarbonyl]-2-vinyl-cyclopropylcarbamoyl}-4-(7-methoxy-2-phenyl-quinolin-4-yloxy)-pyrrolidine-1-carbonyl]-2,2-dimethyl-propyl}-carbamic acid tert-butyl ester]: in assay [1], the IC50 was 50 to 500 nM. For the same compound, the EC50 in assay [2] lay within 500 to 5000 nM.

With `C=C[C@@H]1C[C@]1(NC(=O)[C@@H]1C[C@@H](Oc2cc(-c3ccccc3)nc3cc(OC)ccc23)CN1C(=O)[C@@H](NC(=O)OC(C)(C)C)C(C)(C)C)C(=O)NS(=O)(=O)C1(Cc2cc(C)on2)CC1` [Compound 51, [1-(4-(7-Methoxy-2-phenyl-quinolin-4-yloxy)-2-{1-[1-(5-methyl-isoxazol-3-ylmethyl)-cyclopropanesulfonylaminocarbonyl]-2-vinyl-cyclopropylcarbamoyl}-pyrrolidine-1-carbonyl)-2,2-dimethyl-propyl]-carbamic acid tert-butyl ester], in assay [1], the IC50 is below 50 nM. The EC50 in assay [2] is below 50 nM.

As for `C=C[C@@H]1C[C@]1(NC(=O)[C@@H]1C[C@@H](Oc2cc(-c3ccccc3)nc3cc(OC)ccc23)CN1C(=O)[C@@H](NC(=O)OC(C)(C)C)C(C)C)C(=O)NS(=O)(=O)C1(CC2CC2)CC1` [Compound 52, {1-[2-[1-(1-Cyclopropylmethyl-cyclopropanesulfonylaminocarbonyl)-2-vinyl-cyclopropylcarbamoyl]-4-(7-methoxy-2-phenyl-quinolin-4-yloxy)-pyrrolidine-1-carbonyl]-2-methyl-propyl}-carbamic acid tert-butyl ester], the IC50 in assay [1] is below 50 nM. Also, the EC50 in assay [2] was below 50 nM.

As to `C=C[C@@H]1C[C@]1(NC(=O)[C@@H]1C[C@@H](Oc2cc(-c3ccccc3)nc3cc(OC)ccc23)CN1C(=O)[C@@H](NC(=O)OC(C)(C)C)C(C)C)C(=O)NS(=O)(=O)C1(CCOC)CC1` [Compound 53, {1-[2-{1-[1-(2-Methoxy-ethyl)-cyclopropanesulfonylaminocarbonyl]-2-vinyl-cyclopropylcarbamoyl}-4-(7-methoxy-2-phenyl-quinolin-4-yloxy)-pyrrolidine-1-carbonyl]-2-methyl-propyl}-carbamic acid tert-butyl ester], the IC50 in assay [1] was below 50 nM. Besides, the EC50 in assay [2] is below 50 nM.
